# How the values were obtained:
# [1] = Plasma pharmacokinetics of lurbinectedin metabolites M1 and M4 (metabolite/parent ratio) with and without itraconazole
# Procedure: The study consisted of two parts. In Part A, three patients were sequentially enrolled to receive Sequence 1 (TR: Test–Reference) consisting of itraconazole (200 mg […]; once-daily for 12 days) co-administered with lurbinectedin (0.8 mg/m^2, 1 h, IV infusion q3wk) (Cycle 1), followed by two consecutive cycles (Cycles 2 and 3) of lurbinectedin alone (3.2 mg/m^2, 1 h, IV infusion q3wk), with the third cycle being optional. In Part B, patients were randomized (in a ratio 1:1, using sequence a block randomization implemented with Medidata Rave Randomization and Trial Supply Management [RTSM]) to receive either Sequence 1 (TR: Test–Reference), but with lurbinectedin 0.9 mg/m^2, 1 h, IV when co-administered with itraconazole, or Sequence 2 (RT: Reference–Test) of lurbinectedin alone (Cycle 1), followed by itraconazole and lurbinectedin co-administration (Cycle 2), with lurbinectedin alone (optional Cycle 3) (see Figure 2 above).
# The itraconazole dose (200 mg) was selected based on the published literature for the design of clinical drug–drug interaction studies with itraconazole. In the co-administration cycles, itraconazole was administered as 200 mg (2 × 100 mg capsules) once-daily doses in the morning after breakfast for 12 consecutive days, self-administered at home starting from […] (i.e., four days before lurbinectedin infusion) to Day 8 (i.e., seven days after lurbinectedin infusion), following recommendations from the Summary of Product Characteristics. On Day 1 (day of lurbinectedin infusion), itraconazole was given immediately prior to the start of the lurbinectedin infusion. In fact, itraconazole had to be administered after collecting the first itraconazole PK sample and before the start of lurbinectedin infusion (−15 min to −1 min). In case of lurbinectedin delay (≤2 days), itraconazole could be administered for a maximum of 14 days (Figure 6). In Sequence 1 (TR), itraconazole for self-administration and the patient’s diary were given to the patient on Day −5 with a −2/+1 daytime window (i.e., from Day −7 to Day −4). In Sequence 2 (RT), itraconazole and the patient’s diary were given to the patient on Day −5 of Cycle 2 with a −2/+1 daytime window (i.e., from Day 15 of Cycle 1 to Day −4 of Cycle 2).
# The impact of itraconazole on the lurbinectedin PK profile compared with that of lurbinectedin alone was evaluated using the primary study PK endpoints: Cmax and AUC0–∞ of total plasma lurbinectedin. Other secondary PK endpoints included AUC0–t, total plasma CL, t1/2, and the volume of distribution at steady state (Vss). The following unbound parameters were also estimated: AUCu,0–∞, AUCu,0–t, Cu,max, CLu, Vss,u, and t1/2,u. Plasma PK parameters were calculated with a standard non–compartmental analysis approach using Phoenix® WinNonlin® v6.4 (Certara USA, Inc., Princeton, NJ, USA).
# Serial peripheral venous blood samples for the lurbinectedin PK analysis (and its metabolites M1 and M4) were collected in Cycle 1 and Cycle 2 (Sequences 1 and 2), with a schedule of thirteen samples in all patients as follows: at pre-dose, 5 min prior to the end of the lurbinectedin infusion, and at 0.5, 1, 2, 4, 6, 24, 48, 96, 168, 241, and 337 h post-dose on Days 1, 2, 3, 5, 8, 11, and 15. Only in Part B (Sequence 2) was a blood sampling test at 505 h post-lurbinectedin dosing to be collected before the lurbinectedin infusion started on Day 1 of Cycle 3, if detectable lurbinectedin concentrations were present in the pre-infusion sample in Cycle 2 of Part A. Blood samples for the PK analysis of itraconazole (and its active metabolite, hydroxy-itraconazole) were collected in cycles with itraconazole co-administration (i.e., Cycle 1 of Part A and B [Sequence 1] and Cycle 2 of Part B [Sequence 2]) at pre-dose and at 1, 2, 4, 24, and 168 h post-itraconazole dosing on Days 1, 2, and 8.
# [2] = cited from earlier work
# [3] = co-administration with itraconazole compared with lurbinectedin alone
# [4] = lurbinectedin + itraconazole divided by lurbinectedin alone
# [5] = treatment LRB alone (R), dose-normalized, n = 8
Molecule,"Reduction of the conversion of lurbinectedin to the metabolite [1, 3] [%]","Metabolite/parent ratio (MPR) of AUC0–t, geometric mean (CV%) ([1]; human, in vivo)","Metabolite/parent ratio (MPR) of Cmax, geometric mean (CV%) ([1]; human, in vivo)","MPR of AUC0–t, least-squares geometric mean ratio [1, 4] [%]","MPR of Cmax, least-squares geometric mean ratio [1, 4] [%]","Metabolite/parent ratio (MPR) of AUC0–t, geometric mean (CV%) [1, 5]","Metabolite/parent ratio (MPR) of Cmax, geometric mean (CV%) [1, 5]","Conversion of lurbinectedin to the metabolite [1, 3]","Mild and transient liver enzymes elevations, patients ([2]; chronic dosing) [%]","Risk of QTc prolongation in the electrocardiogram ([2]; especially at ≤200 mg once a day, in vitro data and clinical experience)"
"COc1ccc2[nH]c3c(c2c1)CCN[C@]31CS[C@@H]2c3c(OC(C)=O)c(C)c4c(c3[C@H](COC1=O)N1[C@@H]2[C@@H]2N[C@@H](Cc3cc(C)c(OC)c(O)c32)[C@@H]1O)OCO4 [M4, N–desmethyl–lurbinectedin]",69,1.29 (209.58) µg·h/L/mg,0.61 (47.57) µg/L/mg,31.53,92.47,1.45 (135.58) µg·h/L/mg,0.49 (60.3) µg/L/mg,–,–,–
"1′,3′–dihydroxy–lurbinectedin [M1]",–,0.74 (NA) µg·h/L/mg,0.38 (NA) µg/L/mg,–,–,0.48 (360.01) µg·h/L/mg,0.29 (135.88) µg/L/mg,almost completely inhibited,–,–
CCC(C)n1ncn(-c2ccc(N3CCN(c4ccc(OCC5COC(Cn6cncn6)(c6ccc(Cl)cc6Cl)O5)cc4)CC3)cc2)c1=O (centres unmarked) [itraconazole],–,–,–,–,–,–,–,–,< 5,low

# From article PMC11050816, “Pharmacokinetics and Safety of Lurbinectedin Administrated with Itraconazole in Cancer Patients: A Drug–Drug Interaction Study” (Marine Drugs, 2024)
